Source: US20170027896A1, “METHODS AND COMPOSITIONS FOR THE TREATMENT OF VASCULAR MALFORMATION” (IFOM - FONDAZIONE ISTITUTO FIRC DI ONCOLOGIA MOLECOLARE, priority 2014, published 2017)
Entries after “also recorded” stand apart in the source; their conditions may differ.

Key:
[1] = test system: vascular lesions in the brain of CCM3-ECKO mice; test: Assessment of lesion burden in brains of CCM3-ECKO mice; assay type: in vivo, mouse
Source text: (§1) The CCM3-flox/flox mice were generated at TaconicArtemis (Koeln, Germany). Two P-lox sequences were inserted that flank exons 4 and 5 of the murine CCM3 gene, to produce a loss-of-function mutation after excision by Ore recombinase. These CCM3-flox/flox mice were bred with Cdh5(PAC)-CreERT2 mice (Wang et al, 2010) for tamoxifen-inducible endothelial-cell-specific expression of Ore-recombinase and CCM3 gene recombination. The CCM3-flox/flox-Cdh5(PAC)-CreERT2 mice were further bred with BAT-gal mice (Maretto et al, 2003) to monitor the activation of b-catenin transcription signaling, and with Rosa 26-Enhanced […] Fluorescent Protein (EYFP) (Rosa26EYFP) mice (Srinivas et al, 2001) to monitor the expression of Ore-recombinase through the expression of EYFP. Tamoxifen (Sigma) was dissolved in corn oil and 10% ethanol (at 10 mg/ml), and then diluted 1:5 in corn oil before single intragastric administration to dpn 1-2 pups (35 mg/kg body weight), as described in^14. The control (wild-type) mice included CCM3-flox/flox-Cdh5(PAC)-CreERT2-BAT-gal mice treated with the vehicle used to dissolve the tamoxifen (corn oil plus 2% ethanol), and CCM3^+/+-Cdh5(PAC)-CreERT2-BAT-gal mice treated with tamoxifen.
(§2) Brains and eyes from mice pups were fixed in 3% paraformaldehyde immediately after dissection, and this fixing was continued overnight at 4° C. The retinas were dissected from the eyes just before staining as the whole mount. Fixed brains were embedded in 4% low-melting-point agarose and sectioned along the sagittal axis ([…]) using a vibratome (1000 Plus, The Vibratome Company, St. Louis, Mo., US).
For the classification and counting of lesions, entire brains from dpn 9 littermate pups were sectioned and immunostained for Pecam as described above and in the Methods. Sections were then examined under wide-field fluorescence microscopy (10× and 20×). Lesions were classified as described in^63 as mulberry (multiple cavernae, group of more than two contiguous cavernae), single caverna (single dilated vessel with maximal diameter accommodating more than 25 red blood cells), or telangiectases, tortuous small vessels with abnormally dilated lumen). The total numbers of lesions were calculated by summing all of the types of lesions.
As the sections were […], a correction was applied to the number of mulberry lesions, which can span two sections. Therefore, the number of mulberry lesions was divided by […]. The lesions were counted and classified independently by two observers who were blinded to the treatments.
The maximal diameter of the mulberry lesions and single cavernae was used for statistical comparison.

[2] = test system: b-catenin transcription activity in brain endothelial cells of CCM3-ECKO mice; test: Immunostaining of brain sections of CCM3-ECKO mice (b-gal reporter, progenitor/EndMT markers, VE-cadherin); assay type: in vivo, mouse; details: dpn 9
Source text: as §1, §2
Brain sections and retinas were stained as floating samples in 12-well and 96-well plates, respectively. They were blocked overnight at 4° C. in 1% fish-skin gelatin with 0.5% Triton X100 and 5% donkey serum in phosphate-buffered saline (PBS) containing 0.01% thimerosal. The samples were incubated overnight at 4° C. with the primary antibodies diluted in 1% fish-skin gelatin with 0.25% Triton X100 in PBS containing 0.01% thimerosal. Following washing with 0.1% Triton X100 in PBS, the secondary antibodies were added for 4 h at room temperature in 1% fish-skin gelatin with 0.25% Triton X100 in PBS containing 0.01% thimerosal. The incubation with DAPI was in PBS for 4 h, which was followed by several washes in PBS, post-fixating with 3% paraformaldehyde for 5 min at room temperature, and further washes in PBS. The brain sections were mounted in Vectashield with DAPI, and the coverslips fixed with nail varnish; the retinas were mounted in Prolong gold with DAPI.
The following antibodies were used: anti-Pecam (hamster; MAB1398Z, Millipore); anti-b-galactosidase (chicken; ab9361, Abcam); anti-VE-cadherin (rat monoclonal; 550548, BD Biosciences); anti-VE-cadherin (goat; sc-6458, Santa Cruz); anti-active-b-catenin (mouse monoclonal clone 8E7) dephosphorylated on Ser37 and Thr41, Millipore); anti-total-b-catenin (mouse monoclonal; Cell Signaling); anti-S100a4 (rabbit; 07-2274, Millipore); anti-Klf4 (goat; AF3158, R&D); anti-CD44 (rat; 553131, BD Biosciences); anti-ID1 (rabbit; sc-488, Santa Cruz); anti-aSMA (mouse monoclonal; F3777, Sigma); anti-GFP (rabbit; A-6455, Invitrogen); anti-podocalyxin (goat; AF1556, R&D); anti-phospho-histone H3 (rabbit; ab51776, Millipore); anti-CCM3 (rabbit; Eurogentec); anti-p-Smad1 (rabbit; 9516, Cell Signaling); anti-endomucin (rabbit; sc-65495, Santa Cruz); anti-α-tubulin (mouse monoclonal; T9026, Sigma).

[3] = test system: co-immunoprecipitation complex of b-catenin and VE-cadherin; test: Co-immunoprecipitation and Western blotting of b-catenin and VE-cadherin in CCM3-knockout endothelial line; assay type: cell-based, mouse; details: association reduced by 35% in vehicle-KO
Method: Drugs were added to confluent cells for 48 h before the indicated assays. The final concentrations used were: […] (all from Sigma-Aldrich). As all of these were dissolved in DMSO, control treatment (vehicle) was 0.1% DMSO final concentration, as for drug treatment. Standard procedures were used to extract and analyze the protein content by Western blotting and immunoprecipitation^46. Nuclear fractionation was as described previously^62.

cyclooxygenase = details: reported; cited from earlier work

CSc1ccc(/C=C2/C(C)=C(CC(=O)O)c3cc(F)ccc32)cc1 [sulindac sulfide, (Z)-5-Fluoro-2-methyl-1-[4-(methylthio)benzylidene]indene-3-acetic acid]
diameters of cerebral vessels / mulberry budding ends (Pecam immunostaining of brain sections) ([1]; CCM3-ECKO pups at dpn9, treated from dpn2): greatly reduces
maximal diameter of single cavernae ([1]; CCM3-ECKO pups dpn 9, 30 mg/kg daily): did not significantly reduce
mean maximal diameter of mulberry lesions (±SD) ([1]; CCM3-ECKO pups dpn 9, 30 mg/kg daily, vehicle 386±56 mm): 244 ± 38 µm
mean number (±SD) of vascular lesions per brain ([1]; CCM3-ECKO pups dpn 9, 30 mg/kg intragastrically daily, controls 166.8±22 (sulfide study), 153.5±28 (sulfone study)): 72.6±9
expression of nuclear reporter gene b-gal in endothelial cells of brain vasculature ([2]; CCM3-ECKO BAT-gal pups): abolition; also recorded: inhibited
VE-cadherin localization at endothelial cell-cell junctions in brain vessels ([2]; CCM3-ECKO pups): better localized at endothelial cell-cell junctions
expression of b-catenin target genes / progenitor and EndMT markers (Klf4, S100a4, Id1) in brain endothelium ([2]; CCM3-ECKO pups, immunostaining): strongly reduces; also recorded: inhibited
association between b-catenin and VE-cadherin (b-catenin/VE-cadherin ratio) [3]: restored to the level observed in the wild-type cells
anti-cyclooxygenase activity (cyclooxygenase): inhibits
